Assay results as given in patent publication US4534894A, “Process for sulphation and phosphorylation of proteins and peptides” (The Rockefeller University, priority 1982, dated 1985).

Key:
[1] = Hypoglycemic potency (United States Pharmacopeia method); type: in vivo; details: USP Vol. 18 hypoglycemic potency assay; relative to unmodified insulin
Procedure: Hypoglycemic potency of the modified insulin was measured as described in "The United States Pharmacopeia", Mark Publishing Co., Vol. 18, pp. 883-884 (1964). Bioactivity was 62% as compared to unmodified insulin.

[2] = Aggregation tendency by turbidity of the solution (absorbance at 400 nm); type: physicochemical; details: 0 to 0.1 A non-aggregated, above 0.3 aggregated
Procedure: The tendency of modified insulin to aggregate was assessed by measuring the turbidity of the solution. This method is based on the work of Leach and Scheraga (S. J. Leach and H. A. Scheraga (1964) J. Amer. Chem. Soc. 82, 4790-4792) who stated that absorbancy observed in insulin solutions between 350 and 600 nm is due to light scattering of aggregated particles. […] After deaeration under vacuo for 60 min. 1 ml of this solution was diluted with 1 ml of PBS, and the turbidity was measured on a Hewlett Packard spectrophotometer type HP 8590, utilizing as a blank a non-aggregated sample diluted by 1 volume of 8M guanidine hydrochloride. Aggregation was measured by the difference in absorbance determined at 400 nm for the two samples. Non-aggregated samples gave absorbance values of 0 to 0.1 Absorbance Unit(A), Values above 0.3 were considered to be aggregated.

Substance	Bioactivity (hypoglycemic potency) as compared to unmodified insulin [1] [%]	Turbidity (difference in absorbance at 400 nm) ([2]; dissolved in PBS, passed 50 times through syringe with 26G needle, blank in guanidine hydrochloride) [A]	Turbidity (absorbance at 400 nm) ([2]; dissolved in distilled water, treated by the same procedure) [A]
Example 1: porcine sodium insulin sulphated with sulfuric acid and N,N' dicyclohexyl carbodiimide in dimethylformamide	62	0.08	
unmodified porcine sodium insulin: unmodified porcine sodium insulin, starting material and comparator [reference compound]			0.51
Example 4: porcine sodium insulin phosphorylated with concentrated phosphoric acid and DCC in DMF	85		
